Assay results from the supplement of paper PMC11208160.
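Also: IS621 bridge recombinase in Escherichia coli cells against a fixed T5 target plasmid.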

Test: recombinant UMI read abundance after kanamycin selection (control-corrected) (log10(CPM+1)); higher = more efficient recombination; extreme values may be limits of the assay; sequences stand for … in AGTGCAGAGAAAATCGGCCAGTTTTCTCTGCCTGCAGTCCGCATGCCGTGGGACCCCTTGGGTTCTAACCTGTTGCCTAGATTTATGCAGCGGACTGCCTTTCTCCCAAAGTGATAAACCGG…AGGTTGGTTTCACT; site = the 11-nt donor
Summary of the method: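 Values, expressed as log10(CPM+1), derive from recombinant UMI counts converted to CPM, averaged across replicates and scaled by control-derived factors. Plating was with IPTG (0.07 mM) plus kanamycin or unselected, two replicates each. The screen pooled donor and donor-binding-loop pairs for the IS621 bridge recombinase in Escherichia coli.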
In the case of “CCAATATCATGGACCGGTTTTCCCGGTAATCCGTATTTGTC (site CCGATATCTGA)”, the “recombinant UMI read abundance (log10)” value was 0. With “CCAATATCATGGACCGGTTTTCCCGGTAATCCGTATTTGTC (site CCTATATCTGA)” the “recombinant UMI read abundance (log10)” value was 1.27. With “CCACACACATGGACCGGTTTTCCCGGTAATCCGTATTTGTA (site CCACACACTTA)” the “recombinant UMI read abundance (log10)” value was 1.15. For “CCACACACATGGACCGGTTTTCCCGGTAATCCGTATTTGTA (site CCCCACACTTA)”, the “recombinant UMI read abundance (log10)” value was 0.0104. In the case of “CCACACACATGGACCGGTTTTCCCGGTAATCCGTATTTGTA (site CCGCACACTTA)”, the “recombinant UMI read abundance (log10)” value was 0.0104. For “CCACACACATGGACCGGTTTTCCCGGTAATCCGTATTTGTA (site CCTCACACTTA)”, the “recombinant UMI read abundance (log10)” value was 0.0109. For “CCACATTCATGGACCGGTTTTCCCGGTAATCCGTATTTGAT (site CCACATTCTAT)”, the “recombinant UMI read abundance (log10)” value was 0. With “CCACCACCATGGACCGGTTTTCCCGGTAATCCGTATTTGTA (site CCACCACCTTA)” the “recombinant UMI read abundance (log10)” value was 0.00663. For “CCACGAACATGGACCGGTTTTCCCGGTAATCCGTATTTGCA (site CCACGAACTTG)”, the “recombinant UMI read abundance (log10)” value was 0. In the case of “CCACGCGCATGGACCGGTTTTCCCGGTAATCCGTATTTGAG (site CCACGCGCTCT)”, the “recombinant UMI read abundance (log10)” value was 0.759. For “CCAGAATCATGGACCGGTTTTCCCGGTAATCCGTATTTGTG (site CCAGAATCTCA)”, the “recombinant UMI read abundance (log10)” value was 2.13. In the case of “CCAGCAGCATGGACCGGTTTTCCCGGTAATCCGTATTTGCT (site CAAGCAGCTAG)”, the “recombinant UMI read abundance (log10)” value was 0. With “CCAGCAGCATGGACCGGTTTTCCCGGTAATCCGTATTTGCT (site CCAGCAGCTAG)” the “recombinant UMI read abundance (log10)” value was 0.104. With “CCAGCAGCATGGACCGGTTTTCCCGGTAATCCGTATTTGCT (site CGAGCAGCTAG)” the “recombinant UMI read abundance (log10)” value was 0. With “CCAGCAGCATGGACCGGTTTTCCCGGTAATCCGTATTTGCT (site CTAGCAGCTAG)” the “recombinant UMI read abundance (log10)” value was 0.0142. With “CCAGCATCATGGACCGGTTTTCCCGGTAATCCGTATTTGAC (site CCAGCATCTGT)” the “recombinant UMI read abundance (log10)” value was 0. In the case of “CCAGCATCATGGACCGGTTTTCCCGGTAATCCGTATTTGAC (site CTAGTATCTGT)”, the “recombinant UMI read abundance (log10)” value was 0. In the case of “CCAGGAGCATGGACCGGTTTTCCCGGTAATCCGTATTTGAT (site CCAGGAGCTAT)”, the “recombinant UMI read abundance (log10)” value was 1.6. In the case of “CCAGGAGCATGGACCGGTTTTCCCGGTAATCCGTATTTGAT (site CCAGGCGCTAT)”, the “recombinant UMI read abundance (log10)” value was 0.854. For “CCAGGAGCATGGACCGGTTTTCCCGGTAATCCGTATTTGAT (site CCAGGGGCTAT)”, the “recombinant UMI read abundance (log10)” value was 0.941. For “CCAGGAGCATGGACCGGTTTTCCCGGTAATCCGTATTTGAT (site CCAGGTGCTAT)”, the “recombinant UMI read abundance (log10)” value was 1.78. For “CCAGGTACATGGACCGGTTTTCCCGGTAATCCGTATTTGAT (site CCAGGTACTAT)”, the “recombinant UMI read abundance (log10)” value was 0.643. For “CCAGGTACATGGACCGGTTTTCCCGGTAATCCGTATTTGAT (site CCAGGTCCTAT)”, the “recombinant UMI read abundance (log10)” value was 0. In the case of “CCAGGTACATGGACCGGTTTTCCCGGTAATCCGTATTTGAT (site CCAGGTGCTAT)”, the “recombinant UMI read abundance (log10)” value was 1.2. In the case of “CCAGGTACATGGACCGGTTTTCCCGGTAATCCGTATTTGAT (site CCAGGTTCTAT)”, the “recombinant UMI read abundance (log10)” value was 0.478. For “CCAGGTGCATGGACCGGTTTTCCCGGTAATCCGTATTTGCT (site CCAGGTGCTAA)”, the “recombinant UMI read abundance (log10)” value was 0.208. For “CCAGGTGCATGGACCGGTTTTCCCGGTAATCCGTATTTGCT (site CCAGGTGCTAC)”, the “recombinant UMI read abundance (log10)” value was 0.00458. In the case of “CCAGGTGCATGGACCGGTTTTCCCGGTAATCCGTATTTGCT (site CCAGGTGCTAG)”, the “recombinant UMI read abundance (log10)” value was 1.46. In the case of “CCAGGTGCATGGACCGGTTTTCCCGGTAATCCGTATTTGCT (site CCAGGTGCTAT)”, the “recombinant UMI read abundance (log10)” value was 0.402. In the case of “CCAGGTGCATGGACCGGTTTTCCCGGTAATCCGTATTTGTT (site CCAGGTGCTAA)”, the “recombinant UMI read abundance (log10)” value was 0.856. For “CCAGGTGCATGGACCGGTTTTCCCGGTAATCCGTATTTGTT (site CCAGGTGCTAC)”, the “recombinant UMI read abundance (log10)” value was 0.00844. With “CCAGGTGCATGGACCGGTTTTCCCGGTAATCCGTATTTGTT (site CCAGGTGCTAG)” the “recombinant UMI read abundance (log10)” value was 1.42. For “CCAGGTGCATGGACCGGTTTTCCCGGTAATCCGTATTTGTT (site CCAGGTGCTAT)”, the “recombinant UMI read abundance (log10)” value was 1.14. In the case of “CCAGTATCATGGACCGGTTTTCCCGGTAATCCGTATTTGAC (site CAAGTATCTGT)”, the “recombinant UMI read abundance (log10)” value was 0.983. With “CCAGTATCATGGACCGGTTTTCCCGGTAATCCGTATTTGAC (site CCAGTATCTGT)” the “recombinant UMI read abundance (log10)” value was 0.685. With “CCAGTATCATGGACCGGTTTTCCCGGTAATCCGTATTTGAC (site CGAGTATCTGT)” the “recombinant UMI read abundance (log10)” value was 0. In the case of “CCAGTATCATGGACCGGTTTTCCCGGTAATCCGTATTTGAC (site CTAGTATCTGT)”, the “recombinant UMI read abundance (log10)” value was 0.871. For “CCATACACATGGACCGGTTTTCCCGGTAATCCGTATTTGTT (site CCATACACTAA)”, the “recombinant UMI read abundance (log10)” value was 0.866. In the case of “CCATATTCATGGACCGGTTTTCCCGGTAATCCGTATTTGAC (site GGGATCGCTAC)”, the “recombinant UMI read abundance (log10)” value was 0.00628. For “CCATCAGCATGGACCGGTTTTCCCGGTAATCCGTATTTGCT (site CCATCAGCTAG)”, the “recombinant UMI read abundance (log10)” value was 0.375. In the case of “CCATCAGCATGGACCGGTTTTCCCGGTAATCCGTATTTGCT (site CGATCATCTAG)”, the “recombinant UMI read abundance (log10)” value was 0.145. For “CCATCATCATGGACCGGTTTTCCCGGTAATCCGTATTTGCA (site CCATCATCTTG)”, the “recombinant UMI read abundance (log10)” value was 0. For “CCATCATCATGGACCGGTTTTCCCGGTAATCCGTATTTGCA (site CGATCATCTAG)”, the “recombinant UMI read abundance (log10)” value was 0. In the case of “CCATCCCCATGGACCGGTTTTCCCGGTAATCCGTATTTGAT (site CCATCCCCTAT)”, the “recombinant UMI read abundance (log10)” value was 0.0114. For “CCATTATCATGGACCGGTTTTCCCGGTAATCCGTATTTGAC (site CCATTATCTGT)”, the “recombinant UMI read abundance (log10)” value was 0.804. With “CCCAAATCATGGACCGGTTTTCCCGGTAATCCGTATTTGTC (site CCCAAATCTGA)” the “recombinant UMI read abundance (log10)” value was 1.93. In the case of “CCCAAATCATGGACCGGTTTTCCCGGTAATCCGTATTTGTC (site CCCACATCTGA)”, the “recombinant UMI read abundance (log10)” value was 0. In the case of “CCCAAATCATGGACCGGTTTTCCCGGTAATCCGTATTTGTC (site CCCAGATCTGA)”, the “recombinant UMI read abundance (log10)” value was 0. With “CCCAAATCATGGACCGGTTTTCCCGGTAATCCGTATTTGTC (site CCCATATCTGA)” the “recombinant UMI read abundance (log10)” value was 0. In the case of “CCCAAGCCATGGACCGGTTTTCCCGGTAATCCGTATTTGCC (site CCCAAGCCTGG)”, the “recombinant UMI read abundance (log10)” value was 0. For “CCCAAGCCATGGACCGGTTTTCCCGGTAATCCGTATTTGCC (site CCCCAGCCTGG)”, the “recombinant UMI read abundance (log10)” value was 0. In the case of “CCCAAGCCATGGACCGGTTTTCCCGGTAATCCGTATTTGCC (site CCCGAGCCTGG)”, the “recombinant UMI read abundance (log10)” value was 0. With “CCCAAGCCATGGACCGGTTTTCCCGGTAATCCGTATTTGCC (site CCCTAGCCTGG)” the “recombinant UMI read abundance (log10)” value was 0.398. For “CCCAGCACATGGACCGGTTTTCCCGGTAATCCGTATTTGAA (site CCCAGCACTTT)”, the “recombinant UMI read abundance (log10)” value was 0.515. With “CCCAGCTCATGGACCGGTTTTCCCGGTAATCCGTATTTGCA (site CCCAGCTCTTG)” the “recombinant UMI read abundance (log10)” value was 2.3. For “CCCATACCATGGACCGGTTTTCCCGGTAATCCGTATTTGTG (site CCCATACCTCA)”, the “recombinant UMI read abundance (log10)” value was 0.0125. For “CCCATATCATGGACCGGTTTTCCCGGTAATCCGTATTTGGC (site CCCATATCTGA)”, the “recombinant UMI read abundance (log10)” value was 0. With “CCCATATCATGGACCGGTTTTCCCGGTAATCCGTATTTGGC (site CCCATATCTGC)” the “recombinant UMI read abundance (log10)” value was 0. For “CCCATATCATGGACCGGTTTTCCCGGTAATCCGTATTTGGC (site CCCATATCTGG)”, the “recombinant UMI read abundance (log10)” value was 0. For “CCCATATCATGGACCGGTTTTCCCGGTAATCCGTATTTGGC (site CCCATATCTGT)”, the “recombinant UMI read abundance (log10)” value was 0.0107. In the case of “CCCATCTCATGGACCGGTTTTCCCGGTAATCCGTATTTGCT (site CCCATCTCTAG)”, the “recombinant UMI read abundance (log10)” value was 1.63. In the case of “CCCATCTCATGGACCGGTTTTCCCGGTAATCCGTATTTGTC (site CCCATATCTGA)”, the “recombinant UMI read abundance (log10)” value was 0. For “CCCATCTCATGGACCGGTTTTCCCGGTAATCCGTATTTGTC (site CCCATCTCTGA)”, the “recombinant UMI read abundance (log10)” value was 1.35. With “CCCATCTCATGGACCGGTTTTCCCGGTAATCCGTATTTGTC (site CCCATGTCTGA)” the “recombinant UMI read abundance (log10)” value was 0. For “CCCATCTCATGGACCGGTTTTCCCGGTAATCCGTATTTGTC (site CCCATTTCTGA)”, the “recombinant UMI read abundance (log10)” value was 0. For “CCCCAAGCATGGACCGGTTTTCCCGGTAATCCGTATTTGGC (site CCCCAAGCTGC)”, the “recombinant UMI read abundance (log10)” value was 0. With “CCCCACACATGGACCGGTTTTCCCGGTAATCCGTATTTGCA (site CCCCACACTTA)” the “recombinant UMI read abundance (log10)” value was 0.0196. In the case of “CCCCACACATGGACCGGTTTTCCCGGTAATCCGTATTTGCA (site CCCCACACTTC)”, the “recombinant UMI read abundance (log10)” value was 0.0185. For “CCCCACACATGGACCGGTTTTCCCGGTAATCCGTATTTGCA (site CCCCACACTTG)”, the “recombinant UMI read abundance (log10)” value was 1.88. With “CCCCACACATGGACCGGTTTTCCCGGTAATCCGTATTTGCA (site CCCCACACTTT)” the “recombinant UMI read abundance (log10)” value was 0.16. In the case of “CCCCACGCATGGACCGGTTTTCCCGGTAATCCGTATTTGGC (site CCCCACGCTGC)”, the “recombinant UMI read abundance (log10)” value was 0.767. With “CCCCACGCATGGACCGGTTTTCCCGGTAATCCGTATTTGTA (site CCCCACACTTA)” the “recombinant UMI read abundance (log10)” value was 0.643. For “CCCCACGCATGGACCGGTTTTCCCGGTAATCCGTATTTGTA (site CCCCACCCTTA)”, the “recombinant UMI read abundance (log10)” value was 0.00405. For “CCCCACGCATGGACCGGTTTTCCCGGTAATCCGTATTTGTA (site CCCCACGCTTA)”, the “recombinant UMI read abundance (log10)” value was 0.81. With “CCCCACGCATGGACCGGTTTTCCCGGTAATCCGTATTTGTA (site CCCCACTCTTA)” the “recombinant UMI read abundance (log10)” value was 0.923.
